Assay results published in ChEMBL document CHEMBL1201862, “PubChem BioAssay data set” (2004).
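Cells were grown in 96-well plates and exposed to each compound for 48 hours at five concentrations; endpoints were interpolated linearly between bracketing concentrations, or set to the highest concentration if not reached. The concentration for 50% growth inhibition is given as GI50.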 Active and inactive are the calls of the source. Rule as the data show it: active = GI50 up to about 1.1 µM and inactive = higher.

Columns and labels:
Assay in all cases: growth of human tumour cells (NCI), 48 h
[1] = tested on: SF-295
[2] = tested on: Malme-3M
[3] = tested on: SF-539
[4] = tested on: BT-549
[5] = tested on: KM12
[6] = tested on: HCC 2998
[7] = tested on: HCT-15
[8] = tested on: M14
[9] = tested on: NCI/ADR-RES
[10] = tested on: SK-MEL-2
[11] = tested on: RXF 393
[12] = tested on: SK-MEL-5
[13] = tested on: RPMI-8226
[14] = tested on: SNB-75
[15] = tested on: TK-10
[16] = tested on: T47D
[17] = tested on: NCI-H226
[18] = tested on: UO-31
[19] = tested on: NCI-H23
[20] = tested on: HCT-116
[21] = tested on: SK-MEL-28
[22] = tested on: U-251
[23] = tested on: Hs-578T
[24] = tested on: DU-145
[25] = tested on: LOX IMVI
[26] = tested on: SK-OV-3
[27] = tested on: A549
[28] = tested on: OVCAR-5
[29] = tested on: MDA-N
[30] = tested on: SN12C
[31] = tested on: SW-620
[32] = tested on: HOP-92
[33] = tested on: ACHN
[34] = tested on: OVCAR-3
[35] = tested on: EKVX
[36] = tested on: SF-268
[37] = tested on: MCF7
[38] = tested on: UACC-257
[39] = tested on: HL-60
[40] = tested on: OVCAR-4
[41] = tested on: COLO 205
[42] = tested on: MDA-MB-435
[43] = tested on: PC-3
[44] = tested on: CCRF-CEM
[45] = tested on: HOP-62
[46] = tested on: SNB-19
[47] = tested on: 786-0
[48] = tested on: NCI-H460
[49] = tested on: OVCAR-8
[50] = tested on: UACC-62
[51] = tested on: CAKI-1
[52] = tested on: MOLT-4
[53] = tested on: HT-29
[54] = tested on: K562
[55] = tested on: MDA-MB-231
[56] = tested on: NCI-H522
[57] = tested on: A498
[58] = tested on: IGROV-1

Cc1nc2cc(F)c(F)cc2[nH]c1=O
GI50 [1]: > 100 µM (inactive) | GI50 [2]: > 100 µM (inactive) | GI50 [3]: > 100 µM (inactive) | GI50 [4]: > 100 µM (inactive) | GI50 [5]: > 100 µM (inactive) | GI50 [6]: > 100 µM (inactive) | GI50 [7]: > 100 µM | GI50 [8]: > 100 µM (inactive) | GI50 [9]: > 100 µM (inactive) | GI50 [10]: > 100 µM (inactive) | GI50 [11]: > 100 µM (inactive) | GI50 [12]: > 100 µM (inactive) | GI50 [13]: > 100 µM (inactive) | GI50 [14]: > 100 µM (inactive) | GI50 [15]: > 100 µM (inactive) | GI50 [16]: > 100 µM (inactive) | GI50 [17]: > 100 µM (inactive) | GI50 [18]: > 100 µM (inactive) | GI50 [19]: > 100 µM (inactive) | GI50 [20]: > 100 µM (inactive) | GI50 [21]: > 100 µM (inactive) | GI50 [22]: > 100 µM (inactive) | GI50 [23]: 77.6 µM (inactive) | GI50 [24]: > 100 µM (inactive) | GI50 [25]: > 100 µM (inactive) | GI50 [26]: > 100 µM (inactive) | GI50 [27]: > 100 µM (inactive) | GI50 [28]: > 100 µM (inactive) | GI50 [29]: > 100 µM (inactive) | GI50 [30]: > 100 µM (inactive) | GI50 [31]: > 100 µM (inactive) | GI50 [32]: > 100 µM (inactive) | GI50 [33]: > 100 µM (inactive) | GI50 [34]: > 100 µM (inactive) | GI50 [35]: 67.1 µM (inactive) | GI50 [36]: > 100 µM (inactive) | GI50 [37]: > 100 µM (inactive) | GI50 [38]: > 100 µM (inactive) | GI50 [39]: > 100 µM (inactive) | GI50 [40]: > 100 µM (inactive) | GI50 [41]: > 100 µM (inactive) | GI50 [42]: > 100 µM (inactive) | GI50 [43]: > 100 µM (inactive) | GI50 [44]: > 100 µM (inactive) | GI50 [45]: > 100 µM (inactive) | GI50 [46]: > 100 µM (inactive) | GI50 [47]: > 100 µM (inactive) | GI50 [48]: > 100 µM (inactive) | GI50 [49]: > 100 µM (inactive) | GI50 [50]: > 100 µM (inactive) | GI50 [51]: > 100 µM (inactive) | GI50 [52]: > 100 µM (inactive) | GI50 [53]: > 100 µM (inactive) | GI50 [54]: > 100 µM (inactive) | GI50 [55]: > 100 µM (inactive)

O=C(N/N=C(COc1ccccc1)\N=C\c1cccnc1)c1ccncc1
GI50 [1]: > 100 µM (inactive) | GI50 [2]: > 100 µM (inactive) | GI50 [3]: > 100 µM (inactive) | GI50 [4]: > 100 µM (inactive) | GI50 [5]: > 100 µM (inactive) | GI50 [6]: > 100 µM (inactive) | GI50 [7]: > 100 µM | GI50 [8]: > 100 µM (inactive) | GI50 [9]: > 100 µM (inactive) | GI50 [10]: > 100 µM (inactive) | GI50 [11]: > 100 µM (inactive) | GI50 [13]: > 100 µM (inactive) | GI50 [14]: 36.8 µM (inactive) | GI50 [15]: > 100 µM (inactive) | GI50 [56]: > 100 µM (inactive) | GI50 [16]: > 100 µM (inactive) | GI50 [17]: > 100 µM (inactive) | GI50 [19]: > 100 µM (inactive) | GI50 [20]: > 100 µM (inactive) | GI50 [21]: > 100 µM (inactive) | GI50 [22]: > 100 µM (inactive) | GI50 [23]: > 100 µM (inactive) | GI50 [24]: > 100 µM (inactive) | GI50 [25]: > 100 µM (inactive) | GI50 [57]: > 100 µM (inactive) | GI50 [26]: > 100 µM (inactive) | GI50 [27]: > 100 µM (inactive) | GI50 [28]: > 100 µM (inactive) | GI50 [29]: > 100 µM (inactive) | GI50 [30]: > 100 µM (inactive) | GI50 [31]: > 100 µM (inactive) | GI50 [33]: > 100 µM (inactive) | GI50 [34]: > 100 µM (inactive) | GI50 [35]: > 100 µM (inactive) | GI50 [36]: > 100 µM (inactive) | GI50 [37]: > 100 µM (inactive) | GI50 [38]: > 100 µM (inactive) | GI50 [39]: > 100 µM (inactive) | GI50 [40]: > 100 µM (inactive) | GI50 [41]: > 100 µM (inactive) | GI50 [42]: > 100 µM (inactive) | GI50 [43]: > 100 µM (inactive) | GI50 [44]: > 100 µM (inactive) | GI50 [45]: 59.6 µM (inactive) | GI50 [46]: > 100 µM (inactive) | GI50 [47]: > 100 µM (inactive) | GI50 [48]: > 100 µM (inactive) | GI50 [58]: > 100 µM (inactive) | GI50 [49]: > 100 µM (inactive) | GI50 [50]: > 100 µM (inactive) | GI50 [51]: > 100 µM (inactive) | GI50 [52]: > 100 µM (inactive) | GI50 [53]: > 100 µM (inactive) | GI50 [54]: > 100 µM (inactive) | GI50 [55]: > 100 µM (inactive)

COCO[C@@H]1C[C@H]2C(=O)N(COC)c3ccccc3C(=O)N2C1
GI50 [1]: > 100 µM (inactive) | GI50 [2]: > 100 µM (inactive) | GI50 [3]: > 100 µM (inactive) | GI50 [4]: > 100 µM (inactive) | GI50 [5]: > 100 µM (inactive) | GI50 [7]: > 100 µM | GI50 [8]: > 100 µM (inactive) | GI50 [9]: > 100 µM (inactive) | GI50 [10]: > 100 µM (inactive) | GI50 [11]: > 100 µM (inactive) | GI50 [12]: > 100 µM (inactive) | GI50 [14]: > 100 µM (inactive) | GI50 [15]: > 100 µM (inactive) | GI50 [56]: > 100 µM (inactive) | GI50 [16]: > 100 µM (inactive) | GI50 [17]: > 100 µM (inactive) | GI50 [18]: > 100 µM (inactive) | GI50 [19]: > 100 µM (inactive) | GI50 [20]: > 100 µM (inactive) | GI50 [21]: > 100 µM (inactive) | GI50 [22]: > 100 µM (inactive) | GI50 [23]: > 100 µM (inactive) | GI50 [24]: > 100 µM (inactive) | GI50 [25]: > 100 µM (inactive) | GI50 [57]: > 100 µM (inactive) | GI50 [26]: > 100 µM (inactive) | GI50 [27]: > 100 µM (inactive) | GI50 [28]: > 100 µM (inactive) | GI50 [29]: > 100 µM (inactive) | GI50 [30]: > 100 µM (inactive) | GI50 [31]: > 100 µM (inactive) | GI50 [33]: > 100 µM (inactive) | GI50 [35]: > 100 µM (inactive) | GI50 [36]: > 100 µM (inactive) | GI50 [37]: > 100 µM (inactive) | GI50 [38]: > 100 µM (inactive) | GI50 [39]: > 100 µM (inactive) | GI50 [40]: > 100 µM (inactive) | GI50 [41]: > 100 µM (inactive) | GI50 [42]: > 100 µM (inactive) | GI50 [43]: > 100 µM (inactive) | GI50 [44]: > 100 µM (inactive) | GI50 [45]: > 100 µM (inactive) | GI50 [46]: > 100 µM (inactive) | GI50 [47]: > 100 µM (inactive) | GI50 [58]: > 100 µM (inactive) | GI50 [49]: > 100 µM (inactive) | GI50 [50]: > 100 µM (inactive) | GI50 [51]: > 100 µM (inactive) | GI50 [52]: > 100 µM (inactive) | GI50 [53]: > 100 µM (inactive) | GI50 [55]: > 100 µM (inactive)
